According to patent US12503448B2, “Antibacterial and antiparasitic quinoxaline-2,3-diamine derivatives” (University College Cardiff Consultants Limited, priority 2019, dated 2025):
Converted amounts (≈) assume the structure as drawn. Read-outs that look alike come from different tables or passages of the source.

Key:
[1] = tested on: S. mansoni adult worms; test: Adult worm drug screen (WHO scoring, WormassayGP2); type: cell-based, Schistosoma mansoni; conditions: for Selectivity Index Adult: HepG2 CC50 over adult worm EC50; for EC50: Schistosoma mansoni, adult worms
Description: Mice (MF-1 mice, Harlan, UK), infected 7 weeks previously with 180 cercaria, were euthanised with an intraperitoneal injection of phenobarbital/heparin solution. Adult worms were recovered by perfusion of the portal system and subjected to drug screening as previously described in Padalino G, Ferla S, Brancale A, Chalmers I W, Hoffmann K F. Int J Parasitol Drugs Drug Resist. 2018 December; 8(3):559-570; in Whiteland H L, Chakroborty A, Forde-Thomas J E, Crusco A, Cookson A, Hollinshead J, Fenn C A, Bartholomew B, Holdsworth P A, Fisher M, Nash R J, Hoffmann K F. Int J Parasitol Drugs Drug Resist. 2018 December; 8(3):465-474; and in Crusco A, Bordoni C, Chakroborty A, Whatley K C L, Whiteland H, Westwell A D, Hoffmann K F. Eur J Med Chem. 2018 May 25; 152:87-100. The data obtained in this manner is shown in Table 1 in the columns labelled “Adult worm”.
Regarding the quantification of drug treatment on adult worms (e.g. decreased activity, paralysis or sluggishness), two different approaches were used, as described below. Where egg deposition was noticed, eggs were removed and counted using a Sedgewick rafter slide.
Adult worms were scored using the standardized microscopic WHO-TDR scoring system previously described by Ramirez, B., Bickle, Q., Yousif, F., Fakorede, F., Mouries, M.-A., Nwaka, S. in Schistosomes: Challenges in compound screening, Expert Opin Drug Discov. 2007 October; 2(s1): S53-61. This scoring system (0-4) identifies changes in worm movement and is defined according to the following scoring matrix: 0=no movement, 1=no movement with visible gut peristalsis, 2=minimal movement (occasional movement from anterior or posterior end of the worm), 3=slow continuous movement and 4=normal movement.
A digital image processing-based system was also used to assess parasite motility after drug treatment and is a modification of methods previously described by Marcellino C., Gut, J., Lim, K., Singh R., McKerrow, L. and Sakanari, J. WormAssay: a novel computer application for whole-plate motion-based screening of macroscopic parasites. PLoS Negl Trop Dis. 2012 January:6(1):e1494. This allowed for objective verification of the WHO method described above. The data obtained with this quantification method is shown in Table 1 in the columns labelled “Adult worm”.

[2] = tested on: B. cereus; test: In vitro antibacterial activity; type: cell-based; conditions: Bacillus cereus
[3] = tested on: Pseudomonas aeruginosa ATCC 27853; test: In vitro antibacterial activity; type: cell-based; conditions: ATCC27853
[4] = tested on: S. mansoni schistosomula; test: 72 hours schistosomula drug screen; type: cell-based, Schistosoma mansoni; conditions: for Selectivity Index Schistosomula: HepG2 CC50 over schistosomula EC50; for EC50: Schistosoma mansoni
Experimental: Biological Screening 72 Hours Schistosomula Drug Screen […] G. Colley, […], Schistosoma mansoni: simplified method for the production of schistosomules., Exp. Parasitol. 35 (1974) 44-51. Newly transformed schistosomula were prepared for 72 hour high throughput screening (HTS) in 384-well black-sided microtiter plates (Perkin Elmer, MA, USA) as described in M. Nur-e-alam, M. Yousaf, […]. Bari, H. A. Ghabbour, […]. Ho, A. J. […], Neoclerodane Diterpenoids from […], Teucrium […]. Nat. […] The data obtained in this manner is shown in Table 1 in the columns labelled “Phenotype”, “Motility” and “Schistosomula average”.

[5] = tested on: M. smegmatis mc^2 15 ATCC 700084; test: In vitro antibacterial activity; type: cell-based, Mycobacterium smegmatis; conditions: Mycolicibacterium smegmatis, ATCC700084
[6] = tested on: S. epidermidis NTCT11077; test: In vitro antibacterial activity; type: cell-based; conditions: Staphylococcus epidermidis
[7] = tested on: E. coli ATCC 25922; test: In vitro antibacterial activity; type: cell-based; conditions: Escherichia coli, ATCC25922
[8] = tested on: S. aureus ATCC 29213; test: In vitro antibacterial activity; type: cell-based; conditions: Staphylococcus aureus, ATCC29213
[9] = tested on: F. hepatica newly excysted juveniles (NEJs); test: Newly excysted juveniles (NEJs) drug screen; type: cell-based, Fasciola hepatica; set-up: scale not given here; conditions: 10 μM, 72 h; higher score indicates lower worm activity
Experimental: Newly Excysted Juveniles (NEJs) Drug Screen
F. hepatica (Italian strain) metacercariae were obtained from Ridgeway Research, Gloucestershire, UK and stored at 4° C. Newly excysted juveniles (NEJs) from metacercariae were produced based on an optimisation introduced to the excystment method published by Dixon et al. and Wilson et al (Dixon, K. E., The physiology of excystment of the metacercaria of Fasciola hepática L. Parasitology, 1966, 56, 431-456.; Wilson, L. R., Good, R. T., Panaccio, M., Wijffels, G. L., Sandeman, R. M., Spithill, T. W, Fasciola hepatica: Characterization and Cloning of the Major Cathepsin B Protease Secreted by Newly Excysted Juvenile Liver Fluke. Experimental Parasitology 1998, 88, 85-94).
After excystment, NEJs were distributed into a 24 well tissue culture plate at a density of 25 parasites per well containing 1 mL of pre-warmed NEJs culture media. Compounds were added to respective wells and NEJ/compound co-cultures were incubated at 37° C. in an atmosphere containing 5% CO2 for 72 hours at a final concentration of 10 μM.
F. hepatica NEJs (25 per well) were incubated with the three compounds at a concentration of 10 μM (in 0.1% DMSO) and cultured for 72 hrs at 37° C. in an atmosphere containing 5% CO2. Control wells (25 NEJs per well) included those containing 0.1% DMSO (solvent) and RMPI (media) as negative controls or 10 μM Triclabendazole (0.1% DMSO, as positive control, labelled “Tbz” (Comp. 3). After 72 hrs, all NEJs were scored for phenotype and motility metrics. For each treatment, an average of both phenotype and motility score was calculated based on the individual parasite scores (across two independent replicates), wherein a higher score indicates lower worm activity. SD is reported on the bar chart.

[10] = Mouse pharmacokinetics, oral cassette dosing; conditions: male, C57/BL6, mouse, plasma, po, 2.5 mg/kg
Experimental: Non-compartmental mouse pharmacokinetics (Male C57/BL6 Mouse, Fasted; 3 mice per group) were determined after oral administration of a nominal dose of 2.5 mg/kg of these formulations in cassettes (5 compounds/group) according to the protocols employed by WuXi (https://www.wuxiapptec.com; the CRO that conducted these studies).

[11] = Metabolic stability in mouse liver microsomes; conditions: liver microsomes
[12] = Semi thermodynamic solubility; conditions: thermodynamic from solid
[13] = tested on: MRSA ATCC 33591; test: In vitro antibacterial activity; type: cell-based; conditions: Staphylococcus aureus
[14] = tested on: MRSA USA 300; test: In vitro antibacterial activity; type: cell-based; conditions: Staphylococcus aureus
[15] = tested on: MRSA EM RSA; test: In vitro antibacterial activity; type: cell-based; conditions: Staphylococcus aureus
Description: In vitro Determination of Antibacterial Activity
Scientific Reports 8 (1), 2018. Bacterial strains of Enterococcus faecalis—ATCC 29212, NCTC 12201, ATCC 51299; Streptococcus pneumoniae—ATCC 49619, 18778, 21394, 21395; Haemophilus influenza—ATCC 49766, 18391, 17428; Staphylococcus aureus—NCTC 12493, ATCC BAA-077, ATCC 700698, 11051; used for testing the compounds, as previously described in “Clinical laboratory testing and in vitro diagnostics test systems—Susceptibility testing of infectious agents and evaluation of performance of antimicrobial susceptibility devices—Part 1: Reference methods for testing the in vitro activity of antimicrobial agentes against bacteria involved in infectious diseases, ISO/FDIS 20776-1:2006(E). All the procedures were carried out in a biosafety containment level 2.

[16] = average of phenotype and motility, read-out: EC50 Schistosomula average
[17] = schistosomula, 72 hour culture, read-out: EC50 Motility
[18] = schistosomula, 72 hour culture, read-out: EC50 Phenotype
[19] = M. smegmatis mc^2 15 ATCC 700084, read-out: MIC90
[20] = E. coli ATCC 25922, read-out: MIC90

| Compound | Selectivity Index Adult [1] | EC50 [1] | MIC90 [2] | MIC90 ([3]; Pseudomonas aeruginosa) | Selectivity Index Schistosomula [4] | EC50 [4, 16] | EC50 [4, 17] | EC50 [4, 18] | MIC90 [5] | MIC90 ([6]; NTCT11077) | MIC90 [7] | MIC90 [8] | Motility (M) Mean score [9] | Phenotype (P) Mean score [9] | further results |
| --- | --- | --- | --- | --- | --- | --- | --- | --- | --- | --- | --- | --- | --- | --- | --- |
| CC(=O)Nc1ccc2nc(Nc3ccc(Cl)c(Cl)c3)c(Nc3ccc(Cl)c(Cl)c3)nc2c1 [Compound 17, N-(2,3-bis((3,4-dichlorophenyl)amino)quinoxalin-6-yl)acetamide] | 12 | 700 nM | < 62.5 µg/mL | > 125 µg/mL | 4 | 2350 nM | 2090 nM | 2600 nM | > 125 µg/mL | < 62.5 µg/mL | > 125 µg/mL | 62.5 µg/mL (≈ 123 µM) | – | – | – |
| CCCCCC(=O)Nc1ccc2nc(Nc3ccc(Cl)c(Cl)c3)c(Nc3ccc(Cl)c(Cl)c3)nc2c1 [Compound 18, N-(2,3-bis((3,4-dichlorophenyl)amino)quinoxalin-6-yl)hexanamide] | 203 | 320 nM | 125 µg/mL (≈ 222 µM) | > 125 µg/mL | 46 | – | 1800 nM | 1020 nM | > 125 µg/mL | > 125 µg/mL | > 125 µg/mL | 62.5 µg/mL (≈ 111 µM) | 4.05 | 4.09 | AUC(0-t) [10]: 68.2 ng·h/mL; Cmax [10]: 16.4 ng/mL; MRT last [10]: 3.86 h; Tmax [10]: 4 h; half-life at 1 μM [11]: 0.618 h; microsomal CLint at 1 μM [11]: 37.4 µL/min/mg; solubility thermodynamic [12]: 15.5 µM (≈ 8.73 µg/mL) |
| O=[N+]([O-])c1ccc2nc(Nc3cccc(C(F)(F)F)c3)c(Nc3cccc(C(F)(F)F)c3)nc2c1 [Compound 10, 6-nitro-N^2, N^3-bis(3-(trifluoromethyl)phenyl)quinoxaline-2,3-diamine] | 836 | 7 nM | – | – | 12 | 480 nM | 570 nM | – | – | – | – | 7.81 µg/mL (≈ 15.8 µM) | 2.71 | 2.76 | MIC90 [13]: > 125 µg/mL; MIC90 [14]: > 125 µg/mL; MIC90 ([2]; B. cereus, read-out: MIC90): > 125 µg/mL; MIC90 ([3]; Pseudomonas aeruginosa ATCC 27853, read-out: MIC90): > 125 µg/mL; MIC90 [5, 19]: > 125 µg/mL; MIC90 ([6]; S. epidermidis NTCT11077, read-out: MIC90): > 125 µg/mL; MIC90 [7, 20]: > 125 µg/mL; MIC90 [15]: > 125 µg/mL |
| CSc1nc2cc(Cl)c(Oc3cccc(Cl)c3Cl)cc2[nH]1 [Comp. 3, triclabendazole, reference compound] | – | – | – | – | – | – | – | – | – | – | – | – | 4.72 | 4.72 | – |
| O=[N+]([O-])c1ccc2nc(NCCc3ccccc3)c(NCCc3ccccc3)nc2c1 [Compound 14, 6-nitro-N^2, N^3-diphenethylquinoxaline-2,3-diamine] | – | – | – | – | – | – | 1470 nM | 2200 nM | – | – | – | – | 4.00 | 4.27 | MIC90 [5, 19]: 31.2 µg/mL (≈ 75.6 µM); MIC90 [7, 20]: > 125 µg/mL; MIC90 ([8]; S. aureus ATCC 29213, read-out: MIC90): > 125 µg/mL |
| O=[N+]([O-])c1ccc2nc(NCc3ccccc3)c(NCc3ccccc3)nc2c1 [Compound 13, N^2, N^3-dibenzyl-6-nitroquinoxaline-2,3-diamine] | – | – | – | – | 4 | 2920 nM | 2640 nM | 3190 nM | > 125 µg/mL | – | > 125 µg/mL | > 125 µg/mL | 3.14 | 3.14 | – |
| Nc1ccc2nc(Nc3ccc(Cl)c(Cl)c3)c(Nc3ccc(Cl)c(Cl)c3)nc2c1 [Compound 15, N^2, N^3-bis(3,4-dichlorophenyl)quinoxaline-2,3,6-triamine] | – | – | – | – | 7 | – | 3250 nM | 3510 nM | – | – | – | – | 4.86 | 5.09 | – |
| Clc1ccc(Nc2nc3ccc(N4CCCC4)cc3nc2Nc2ccc(Cl)c(Cl)c2)cc1Cl [Compound 16, N^2, N^3-bis(3,4-dichlorophenyl)-6-(pyrrolidin-1-yl)quinoxaline-2,3-diamine] | – | – | > 125 µg/mL | > 125 µg/mL | – | – | > 10000 nM | > 10000 nM | > 125 µg/mL | > 125 µg/mL | > 125 µg/mL | 15.6 µg/mL (≈ 30.1 µM) | 2.84 | 2.95 | MIC90 [13]: 31.2 µg/mL (≈ 60.2 µM); MIC90 [14]: 62.5 µg/mL (≈ 120 µM); MIC90 [15]: 62.5 µg/mL (≈ 120 µM) |
| COC(=O)C1=C(C)NC(C)=C(C(=O)OCCN(C)Cc2ccccc2)C1c1cccc([N+](=O)[O-])c1 (stereo not shown) [Nicardipine, reference compound] | – | – | – | – | – | – | – | – | – | – | – | – | – | – | solubility thermodynamic [12]: 35.4 µM (≈ 17 µg/mL) |
